In patent US12559529B2, “NPY2 receptor agonists” (Boehringer Ingelheim International GmbH, priority 2019, dated 2026) one finds Ki data, which are given here for five molecules.

In this test the target is T1, Human Neuropeptide Y2 Receptor (Homo sapiens, UniProt P49146).
T1 construct: purchased CHEMICON HTS066M
T1 sequence (P49146 1-381): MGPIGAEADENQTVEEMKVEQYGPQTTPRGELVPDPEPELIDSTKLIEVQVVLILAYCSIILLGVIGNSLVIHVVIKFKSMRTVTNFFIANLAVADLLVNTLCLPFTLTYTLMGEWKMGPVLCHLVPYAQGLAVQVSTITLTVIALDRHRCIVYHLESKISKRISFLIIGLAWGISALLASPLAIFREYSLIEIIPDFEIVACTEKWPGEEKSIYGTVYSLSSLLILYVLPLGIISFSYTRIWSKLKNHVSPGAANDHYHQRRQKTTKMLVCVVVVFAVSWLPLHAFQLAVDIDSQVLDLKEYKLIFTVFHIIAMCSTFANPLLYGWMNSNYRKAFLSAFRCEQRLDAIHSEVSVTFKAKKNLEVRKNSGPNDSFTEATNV
Kind of test: Radioligand binding competition assay (RLB). The conditions noted are these: Table 3; human 125I-PYY (1-36) 0.02 nM, Y2 receptor membranes; read-out: Ki. The essentials: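 Membranes (0.5 μg/well) and test peptides, serially diluted from 1 mM DMSO stocks, were incubated 2 hours at room temperature in HEPES buffer pH 7.4 with Mg, Ca and ovalbumin.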

*1 amine or outer side, *2 acyl side, *3 side chain or, on linkers, in order; H or OH if unused. Where a SMILES comes first, the peptide text is derived from it. Side-chain parts run from the residue outwards. The star is where a group is joined. C18 diacid = O=C(O)CCCCCCCCCCCCCCCCC(=O)*; γGlu = O=C(O)[C@H](CCC(=O)[*:2])N[*:1]; Isovaleryl = CC(C)CC(=O)*; AEEA = NCCOCCOCC(=O)O

As for `CC(C)CC(=O)N[C@@H](C)C(=O)N1CCC[C@H]1C(=O)N[C@@H](CCC(=O)O)C(=O)N[C@@H](CCCCNC(=O)COCCOCCNC(=O)COCCOCCNC(=O)CC[C@H](NC(=O)CCCCCCCCCCCCCCCCC(=O)O)C(=O)O)C(=O)N1CCC[C@H]1C(=O)N[C@@H](CCC(=O)O)C(=O)N[C@@H](CCC(=O)O)C(=O)N[C@@H](C)C(=O)N[C@@H](C)C(=O)N[C@@H](CO)C(=O)N1CCC[C@H]1C(=O)N[C@@H](CCC(=O)O)C(=O)N[C@@H](CCC(=O)O)C(=O)N[C@H](C(=O)N[C@@H](CCC(N)=O)C(=O)N[C@@H](CCCNC(=N)N)C(=O)N[C@@H](Cc1ccc(O)cc1)C(=O)N[C@@H](Cc1ccc(O)cc1)C(=O)N[C@H](C(=O)N[C@@H](CO)C(=O)N[C@@H](CC(C)C)C(=O)N[C@@H](CCCNC(=N)N)C(=O)N[C@@H](Cc1c[nH]cn1)C(=O)N[C@@H](Cc1ccc(O)cc1)C(=O)N[C@@H](Cc1ccc(O)cc1)C(=O)N[C@@H](CC(N)=O)C(=O)N[C@@H](Cc1c[nH]c2ccccc12)C(=O)N[C@@H](CC(C)C)C(=O)N[C@H](C(=O)N[C@@H](CCCNC(=N)N)C(=O)N[C@@H](CCC(N)=O)C(=O)N[C@@H](CCCNC(=N)N)C(=O)N[C@@H](Cc1ccc(O)cc1)C(N)=O)[C@@H](C)O)C(C)C)[C@@H](C)O` [Compound 226, N{alpha-4}-(3-methylbutanoyl)-N{epsilon-7}-[2-(2-{2-[2-(2-{2-[(4S)-4-carboxy-4-(17-carboxyheptadecanamido)butanamido]ethoxy}ethoxy)acetamido]ethoxy}ethoxy)acetamido]-[4A,7K,9E,11A,17T,18Q,22V,28Y,30W,31L]hPYY (4-36)], the Ki stood at 1.21 nM. As for `CC(C)CC(=O)N[C@@H](C)C(=O)N1CCC[C@H]1C(=O)N[C@@H](CCC(=O)O)C(=O)N[C@@H](CCCCNC(=O)COCCOCCNC(=O)COCCOCCNC(=O)CC[C@H](NC(=O)CCCCCCCCCCCCCCCCC(=O)O)C(=O)O)C(=O)N[C@@H](C)C(=O)N[C@@H](CCC(=O)O)C(=O)N[C@@H](CCC(=O)O)C(=O)N[C@@H](CC(=O)O)C(=O)N[C@@H](C)C(=O)N[C@@H](CO)C(=O)N1CCC[C@H]1C(=O)N[C@@H](CCC(=O)O)C(=O)N[C@@H](CCC(=O)O)C(=O)N[C@@H](CC(C)C)C(=O)N[C@@H](CCC(=O)O)C(=O)N[C@@H](CCC(N)=O)C(=O)N[C@@H](Cc1ccc(O)cc1)C(=O)N[C@@H](Cc1ccc(O)cc1)C(=O)N[C@H](C(=O)N[C@@H](CO)C(=O)N[C@@H](CC(C)C)C(=O)N[C@@H](CCCNC(=N)N)C(=O)N[C@@H](Cc1c[nH]cn1)C(=O)N[C@@H](Cc1ccc(O)cc1)C(=O)N[C@@H](Cc1ccc(O)cc1)C(=O)N[C@@H](CC(N)=O)C(=O)N[C@@H](Cc1c[nH]c2ccccc12)C(=O)N[C@@H](CC(C)C)C(=O)N[C@H](C(=O)N[C@@H](CCCNC(=N)N)C(=O)N[C@@H](CCC(N)=O)C(=O)N[C@@H](CCCNC(=N)N)C(=O)N[C@@H](Cc1ccc(O)cc1)C(N)=O)[C@@H](C)O)C(C)C` [Compound 227, N{alpha-4}-(3-methylbutanoyl)-N{epsilon-7}-[2-(2-{2-[2-(2-{2-[(4S)-4-carboxy-4-(17-carboxyheptadecanamido)butanamido]ethoxy}ethoxy)acetamido]ethoxy}ethoxy)acetamido]-[4A,7K,8A,9E,18E,19Q,22V,28Y,30W,31L]hPYY (4-36)] (Isovaleryl-APEK([AEEA-AEEA-γGlu-C18 diacid])AEEDASPEELEQYYVSLRHYYNWLTRQRY-NH2), the figure is 12.3 nM; as for `CC(C)CC(=O)N[C@@H](C)C(=O)N1CCC[C@H]1C(=O)N[C@@H](CCC(=O)O)C(=O)N[C@@H](CCCCNC(=O)COCCOCCNC(=O)COCCOCCNC(=O)CC[C@H](NC(=O)CCCCCCCCCCCCCCCCC(=O)O)C(=O)O)C(=O)N1CCC[C@H]1C(=O)N[C@@H](CCC(=O)O)C(=O)N[C@@H](CCC(=O)O)C(=O)N[C@@H](CC(=O)O)C(=O)N[C@@H](C)C(=O)N[C@@H](CO)C(=O)N1CCC[C@H]1C(=O)N[C@@H](CCC(=O)O)C(=O)N[C@@H](CCC(=O)O)C(=O)N[C@@H](CC(C)C)C(=O)N[C@@H](CCC(N)=O)C(=O)N[C@@H](CCCNC(=N)N)C(=O)N[C@@H](Cc1ccc(O)cc1)C(=O)N[C@@H](Cc1ccc(O)cc1)C(=O)N[C@H](C(=O)N[C@@H](CO)C(=O)N[C@@H](C)C(=O)N[C@@H](CCCNC(=N)N)C(=O)N[C@@H](Cc1c[nH]cn1)C(=O)N[C@@H](Cc1ccc(O)cc1)C(=O)N[C@@H](Cc1ccc(O)cc1)C(=O)N[C@@H](CC(N)=O)C(=O)N[C@@H](Cc1c[nH]c2ccccc12)C(=O)N[C@@H](CC(C)C)C(=O)N[C@H](C(=O)N[C@@H](CCCNC(=N)N)C(=O)N[C@@H](CCC(N)=O)C(=O)N[C@@H](CCCNC(=N)N)C(=O)N[C@@H](Cc1ccc(O)cc1)C(N)=O)[C@@H](C)O)C(C)C` [Compound 229, N{alpha-4}-(3-methylbutanoyl)-N{epsilon-7}-[2-(2-{2-[2-(2-{2-[(4S)-4-carboxy-4-(17-carboxyheptadecanamido)butanamido]ethoxy}ethoxy)acetamido]ethoxy}ethoxy)acetamido]-[4A,7K,9E,18Q,22V,24A,28Y,30W,31L]hPYY (4-36)], 2.84 nM. As for `CC(C)CC(=O)N[C@@H](C)C(=O)N1CCC[C@H]1C(=O)N[C@@H](C)C(=O)N[C@@H](CCCCNC(=O)COCCOCCNC(=O)COCCOCCNC(=O)CC[C@H](NC(=O)CCCCCCCCCCCCCCCCC(=O)O)C(=O)O)C(=O)N1CCC[C@H]1C(=O)N1CCC[C@H]1C(=O)N[C@@H](CCC(=O)O)C(=O)N[C@@H](CC(=O)O)C(=O)N[C@@H](C)C(=O)N[C@@H](CO)C(=O)N1CCC[C@H]1C(=O)N[C@@H](CCC(=O)O)C(=O)N[C@@H](CCC(=O)O)C(=O)N[C@@H](CC(C)C)C(=O)N[C@@H](CCC(N)=O)C(=O)N[C@@H](CCCNC(=N)N)C(=O)N[C@@H](Cc1ccc(O)cc1)C(=O)N[C@@H](Cc1ccc(O)cc1)C(=O)N[C@H](C(=O)N[C@@H](CCC(=O)O)C(=O)N[C@@H](CC(C)C)C(=O)N[C@@H](CCCNC(=N)N)C(=O)N[C@@H](Cc1c[nH]cn1)C(=O)N[C@@H](Cc1ccc(O)cc1)C(=O)N[C@@H](Cc1ccc(O)cc1)C(=O)N[C@@H](CC(N)=O)C(=O)N[C@@H](Cc1c[nH]c2ccccc12)C(=O)N[C@@H](CC(C)C)C(=O)N[C@H](C(=O)N[C@@H](CCCNC(=N)N)C(=O)N[C@@H](CCC(N)=O)C(=O)N[C@@H](CCCNC(=N)N)C(=O)N[C@@H](Cc1ccc(O)cc1)C(N)=O)[C@@H](C)O)C(C)C` [Compound 232, N{alpha-4}-(3-methylbutanoyl)-N{epsilon-7}-[2-(2-{2-[2-(2-{2-[(4S)-4-carboxy-4-(17-carboxyheptadecanamido)butanamido]ethoxy}ethoxy)acetamido]ethoxy}ethoxy)acetamido]-[4A,6A,7K,9P,18Q,22V,23E,28Y,30W,31L]hPYY (4-36)], the figure is 0.81 nM; as for `CC(C)CC(=O)N[C@@H](C)C(=O)N1CCC[C@H]1C(=O)N[C@@H](CCC(=O)O)C(=O)N[C@@H](CCCCNC(=O)COCCOCCNC(=O)COCCOCCNC(=O)CC[C@H](NC(=O)CCCCCCCCCCCCCCCCC(=O)O)C(=O)O)C(=O)N[C@H](C(=O)N[C@@H](CCC(=O)O)C(=O)N[C@@H](CCC(=O)O)C(=O)N[C@@H](CCC(=O)O)C(=O)N[C@@H](C)C(=O)N[C@@H](CO)C(=O)N1CCC[C@H]1C(=O)N[C@@H](CCC(=O)O)C(=O)N[C@@H](CCC(=O)O)C(=O)N[C@@H](CC(C)C)C(=O)N[C@@H](CCC(N)=O)C(=O)N[C@@H](CCCNC(=N)N)C(=O)N[C@@H](Cc1ccc(O)cc1)C(=O)N[C@@H](Cc1ccc(O)cc1)C(=O)N[C@H](C(=O)N[C@@H](CO)C(=O)N[C@@H](CC(C)C)C(=O)N[C@@H](CCCNC(=N)N)C(=O)N[C@@H](Cc1c[nH]cn1)C(=O)N[C@@H](Cc1ccc(O)cc1)C(=O)N[C@@H](Cc1ccc(O)cc1)C(=O)N[C@@H](CC(N)=O)C(=O)N[C@@H](Cc1c[nH]c2ccccc12)C(=O)N[C@@H](CC(C)C)C(=O)N[C@H](C(=O)N[C@@H](CCCNC(=N)N)C(=O)N[C@@H](CCC(N)=O)C(=O)N[C@@H](CCCNC(=N)N)C(=O)N[C@@H](Cc1ccc(O)cc1)C(N)=O)[C@@H](C)O)C(C)C)[C@@H](C)O` [Compound 238, N{alpha-4}-(3-methylbutanoyl)-N{epsilon-7}-[2-(2-{2-[2-(2-{2-[(4S)-4-carboxy-4-(17-carboxyheptadecanamido)butanamido]ethoxy}ethoxy)acetamido]ethoxy}ethoxy)acetamido]-[4A,7K,8T,9E,11E,18Q,22V,28Y,30W,31L]hPYY (4-36)] (Isovaleryl-APEK([AEEA-AEEA-γGlu-C18 diacid])TEEEASPEELQRYYVSLRHYYNWLTRQRY-NH2), 25.1 nM.
